Laboratory results taken from article PMC3534870 (Bioorganic & medicinal chemistry letters, 2012).

Key:
GST-RORγ = molecular target: T1, GST-RORγ (Homo sapiens, UniProt P51449); test: Radioligand binding; conditions: versus 6p
T1 sequence (P51449 269-508 limits assumed): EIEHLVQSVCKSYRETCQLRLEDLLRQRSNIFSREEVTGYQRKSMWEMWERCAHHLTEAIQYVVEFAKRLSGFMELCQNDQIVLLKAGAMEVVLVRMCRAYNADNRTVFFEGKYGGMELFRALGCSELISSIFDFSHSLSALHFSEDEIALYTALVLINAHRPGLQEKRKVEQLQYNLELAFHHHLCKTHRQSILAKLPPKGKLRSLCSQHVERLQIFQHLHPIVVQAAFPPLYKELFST

LXRα = molecular target: T2, LXRα (Homo sapiens, UniProt Q13133); test: Gal4 DBD-NR LBD cotransfection assay, LXRα; format: cell-based; conditions: data not shown
T2 sequence (Q13133 209-447 limits assumed): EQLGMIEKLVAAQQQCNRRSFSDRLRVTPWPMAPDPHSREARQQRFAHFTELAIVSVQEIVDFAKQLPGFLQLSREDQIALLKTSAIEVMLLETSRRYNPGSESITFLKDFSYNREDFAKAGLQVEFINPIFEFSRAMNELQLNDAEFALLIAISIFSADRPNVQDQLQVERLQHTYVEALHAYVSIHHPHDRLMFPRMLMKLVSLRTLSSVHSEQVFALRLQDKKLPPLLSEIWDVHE

Solubility = format: physicochemical; conditions: 20hr
p450 2C9 = p450 2C9 (Homo sapiens, UniProt P11712); test: p450 inhibition 2C9; format: in vitro ADME; conditions: 10 µM drug
Chain of p450 2C9 (P11712 whole entry): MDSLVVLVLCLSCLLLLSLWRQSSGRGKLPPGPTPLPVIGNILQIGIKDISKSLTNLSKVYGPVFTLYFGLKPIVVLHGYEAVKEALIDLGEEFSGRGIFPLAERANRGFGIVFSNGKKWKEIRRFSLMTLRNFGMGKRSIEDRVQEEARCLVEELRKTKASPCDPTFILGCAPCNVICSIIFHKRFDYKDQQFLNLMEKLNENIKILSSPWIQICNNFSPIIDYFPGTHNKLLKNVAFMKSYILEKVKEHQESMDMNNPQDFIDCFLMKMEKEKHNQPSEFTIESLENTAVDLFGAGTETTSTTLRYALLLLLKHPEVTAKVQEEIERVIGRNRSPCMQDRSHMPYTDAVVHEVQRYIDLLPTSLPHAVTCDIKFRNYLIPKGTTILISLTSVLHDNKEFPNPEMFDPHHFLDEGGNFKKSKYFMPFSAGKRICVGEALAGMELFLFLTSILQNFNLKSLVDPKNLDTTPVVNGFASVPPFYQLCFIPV

p450 3A4 = p450 3A4 (Homo sapiens, UniProt P08684); test: p450 inhibition 3A4; format: in vitro ADME; conditions: 10 µM drug
Chain of p450 3A4 (P08684 whole entry, the tested form may be a part): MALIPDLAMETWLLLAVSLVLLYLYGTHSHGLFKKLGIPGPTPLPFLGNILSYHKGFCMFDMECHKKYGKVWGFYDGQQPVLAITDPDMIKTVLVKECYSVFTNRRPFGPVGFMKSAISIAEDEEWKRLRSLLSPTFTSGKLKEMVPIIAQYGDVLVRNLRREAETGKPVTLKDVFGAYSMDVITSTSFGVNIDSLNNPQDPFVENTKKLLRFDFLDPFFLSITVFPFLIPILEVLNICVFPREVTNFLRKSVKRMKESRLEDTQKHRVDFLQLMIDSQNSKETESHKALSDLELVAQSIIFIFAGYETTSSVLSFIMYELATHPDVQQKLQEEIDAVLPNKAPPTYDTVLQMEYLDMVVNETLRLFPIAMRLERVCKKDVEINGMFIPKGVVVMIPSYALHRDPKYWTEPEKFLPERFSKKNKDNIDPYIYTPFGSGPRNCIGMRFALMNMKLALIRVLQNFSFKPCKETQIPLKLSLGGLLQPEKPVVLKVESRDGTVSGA

FXR = molecular target: T3, FXR (Homo sapiens, UniProt Q96RI1); test: Gal4 DBD-NR LBD cotransfection assay, FXR; format: cell-based; conditions: data not shown
T3 sequence (Q96RI1 262-486 limits assumed): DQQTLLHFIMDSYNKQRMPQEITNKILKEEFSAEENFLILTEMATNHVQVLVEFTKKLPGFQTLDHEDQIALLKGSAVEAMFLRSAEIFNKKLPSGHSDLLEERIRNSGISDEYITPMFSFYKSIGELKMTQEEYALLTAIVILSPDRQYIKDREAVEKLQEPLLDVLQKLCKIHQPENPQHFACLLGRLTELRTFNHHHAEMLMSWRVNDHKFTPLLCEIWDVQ

[1] = CNS exposure: plasma and brain levels in mice; conditions: t = 6h
RORα = molecular target: T4, RORα (Homo sapiens, UniProt P35398); test: Gal4 DBD-NR LBD cotransfection assay, RORα; format: cell-based; conditions: data not shown
T4 sequence (P35398 272-510 limits assumed): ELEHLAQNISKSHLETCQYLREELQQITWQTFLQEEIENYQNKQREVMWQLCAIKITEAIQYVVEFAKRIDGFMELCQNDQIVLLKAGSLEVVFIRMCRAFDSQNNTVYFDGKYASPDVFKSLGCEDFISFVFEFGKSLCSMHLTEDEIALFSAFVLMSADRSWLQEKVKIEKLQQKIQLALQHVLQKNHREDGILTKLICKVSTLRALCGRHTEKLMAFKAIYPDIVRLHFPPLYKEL

**Q.** With `COc1ccc(C(CC(=O)N2CCCC2)c2c(O)cc(OC)cc2OC)cc1` (centres unmarked) [Compound 6o] as the compound, how does the “RORγ activity in words (binding assay)” value (GST-RORγ) read?
**A.** loss of activity

**Q.** Which “RORγ activity in words (binding assay)” value (GST-RORγ) does the source give for `COc1ccc(C(CC(=O)NCc2ccccc2)c2c(O)cc(OC)cc2OC)cc1` (centres unmarked) [Compound 6k] here?
**A.** loss of activity

**Q.** For `COc1ccc(C(CC(=O)N2CCOCC2)c2c(O)cc(OC)cc2OC)cc1` (centres unmarked) [Compound 6l], which “RORγ activity in words (binding assay)” value (GST-RORγ) is on record?
**A.** loss of activity

**Q.** For `COc1cc(O)c(C(CC(=O)N2CC(C)CC(C)C2)c2ccc3c(c2)OCO3)c(OC)c1` (centres unmarked) [Compound 1], which “activity on LXRα” value (LXRα) is on record?
**A.** did not show any activity

**Q.** And the “Solubility pH 7.4” value (Solubility; 100 µM solution shaken in PBS pH 7.4, room temperature)?
**A.** low to modest

**Q.** What about the “Solubility pH 5.0” value (Solubility; 100 µM solution shaken in Sodium Citrate Buffer pH 5.0, room temperature) of the same compound?
**A.** low to modest

**Q.** And the “p450 % inhibition 2C9” value (p450 2C9)?
**A.** high

**Q.** And the “p450 % inhibition 3A4” value (p450 3A4)?
**A.** high

**Q.** What about the “activity on FXR” value (FXR) of the same compound?
**A.** did not show any activity

**Q.** And the “[Plasma]” value ([1]; 10 mg/kg IP in 10:10:80 DMSO:Tween:water)?
**A.** limited

**Q.** What about the “b.p. (%) brain penetration” value ([1]; 10 mg/kg IP) of the same compound?
**A.** good

**Q.** And the “activity on RORα” value (RORα)?
**A.** did not show any activity

**Q.** With `COc1ccc(C(CC(=O)N2CCCCC2)c2c(O)cc(OC)cc2OC)cc1` (centres unmarked) [Compound 6m] as the compound, how does the “RORγ activity in words (binding assay)” value (GST-RORγ) read?
**A.** loss of activity

**Q.** For `COc1ccc(C(CC(=O)NC2CCCC2)c2c(O)cc(OC)cc2OC)cc1` (centres unmarked) [Compound 6n], which “RORγ activity in words (binding assay)” value (GST-RORγ) is on record?
**A.** loss of activity
